Source: patent US10105319B2 (Murray and Poole Enterprises Limited, priority 2013, dated 2018)

Legend:
[1] = test system: patients with a first episode of recurrent pericarditis; conditions: at 18 months; conventional treatment plus colchicine 0.5-1.0 mg/d for 6 months; cited from earlier work
[2] = test system: patients with clinically stable coronary disease; assay: LoDoCo Trial: colchicine 0.5 mg/day added to standard secondary prevention; format: in vivo, human
Protocol: This study is described in PCT/AU2013/001261 and is hereby incorporated in its entirety by reference.
All outcomes were evaluated by an experienced adjudicator blinded to the treatment allocation.
Patients with a history of bypass surgery were only eligible if they had undergone bypass surgery more than 10 years before, or had angiographic evidence of graft failure or had undergone stenting since their bypass surgery. All patients signed informed consent before randomization.
The randomization sequence was computer generated, kept concealed from the investigators at all times and was managed by a research assistant who had no involvement in the evaluation or management of study patients. […] Patients who were intolerant to therapy remained in the study, and were followed in the usual manner and included in the primary intention to treat analysis.
The drug was dispensed by their usual chemist, and if requested, patients were reimbursed for the cost of these scripts. All other treatments were continued as usual.
Patient compliance with treatment and outcome data were collected at routine follow up visits and at the time of any unplanned hospital admission. An acute coronary syndrome (ACS) was defined as either (a) Acute Myocardial Infarction (AMI), as evidenced by acute ischemic chest pain associated with a rise in serum troponin above the upper limit of normal or (b) Unstable Angina (UA), as evidenced by a recent acceleration of the patient's angina unassociated with a rise in serum troponin but associated with angiographic evidence of a change in the patient's coronary anatomy. (Unstable Angina Braunwald classification types IB and IIB). The ACS was characterized as being stent-related if there was evidence of significant in-stent stenosis or acute stent thrombosis. Out of Hospital Cardiac Arrest was defined as either a sudden death as evidenced on the patient's death certificate, or a non-fatal out of hospital cardiac arrest, defined as a recovery from sudden collapse associated with documented asystole, ventricular tachycardia or ventricular fibrillation. Noncardioembolic ischemic stroke was defined as CT or MRI proven ischemic stroke adjudged by the treating neurologist as not being due to atrial fibrillation or intracranial hemorrhage.
The primary efficacy outcome was the composite, ACS, fatal or non-fatal out of hospital cardiac arrest or non-cardio-embolic ischemic stroke. Secondary outcomes were (a) individual components of the primary outcome, and (b) the components of ACS unrelated to stent disease.
The pre-specified study duration was a minimum follow up of two years in all patients. Accordingly the study was closed on May 31, 2012. During May, all living patients were contacted by phone to collect compliance and outcome data from the last date of follow-up.
Summary statistics, including mean and standard deviation were calculated for all baseline characteristics by treatment arm. All time to event outcomes were calculated in days by subtracting the date of randomization from either: (1) the date of event or death; or (2) the trial termination date for those patients not experiencing the defined event. As pre-specified, the primary efficacy analysis was based on the intention-to-treat principle. The intention-to-treat analysis included all randomized subjects and all events during the time from randomization to the trial termination. Trial termination date was fixed as May 31, 2012. A secondary pre-specified on-treatment analysis was also performed, based on patients who were both tolerant and compliant to therapy beyond the first month of randomization.
The time-to-first-event for all outcomes is presented using a Kaplan-Meier plot. […] The secondary outcomes were analysed similarly.

[3] = test system: patients with a first episode of acute pericarditis; conditions: at 18 months; conventional treatment plus colchicine 0.5 to 1.0 mg/day for 3 months; p=0.004; cited from earlier work
[4] = test system: patients with clinically stable coronary disease; conditions: 0.5 mg/day in addition to statins; Nidorf et al., JACC 2013; cited from earlier work

COc1cc2c(c(OC)c1OC)-c1ccc(OC)c(=O)cc1[C@@H](NC(C)=O)CC2 [colchicine, N[5,6,7,9-tetrahydro-1,2,3,10-tetratmethoxy 9-oxobenzo[a]heptalen-7-yl],(S)-acetamide]
recurrence rate (actuarial rate) [1]: 24.0%
patients with AMI (ACS unrelated to stent disease) ([2]; 0.5 mg/day, 4/282): 1.4%
patients with UA (ACS unrelated to stent disease) ([2]; 0.5 mg/day, 5/282): 1.8%
patients with an ACS unrelated to stent disease ([2]; 0.5 mg/day, 9/282): 3.2%
patients presenting with an ACS ([2]; 0.5 mg/day, 13/282): 4.6%
patients with primary outcome (ACS, out of hospital cardiac arrest or non-cardio-embolic ischemic stroke) ([2]; 0.5 mg/day, intention to treat, 15/282, median follow up 36 months): 5.3%
patients reporting early intolerance due to gastrointestinal side effects ([2]; 32 of 282 randomized to treatment): 11%
patients who died ([2]; colchicine group, all of non-cardiac causes, 10 in control group): 4 patients
out of hospital cardiac arrest and non-cardio-embolic ischemic stroke ([2]; treatment group vs control): infrequent but were also reduced
recurrence rate [3]: 10.7%
prevention of cardiovascular events [4]: appeared effective
